Results as given in patent US12036190B2, “Methods and compositions for the treatment of cytoplasmic glycogen storage disorders” (Duke University, priority 2015, dated 2024).

Legend:
[1] = in vivo extracellular fluid concentration; cited from earlier work
autophagy = details: Table 4; drugs known to enhance autophagy; cited from earlier work
[2] = test system: G6pc knockdown AML-12 cells; assay: LC3 Western blot of drug-treated G6pc knockdown AML-12 cells; assay type: cell-based, mouse; details: 24 hours; conditions with optimal effects in the Oil Red O screen
Method: FIG. 27 illustrates LC3 Western blot of drug-treated G6pc knockdown AML-12 cells. Western blotting was performed on AML-12 cells incubated for 24 hours with the described drug conditions. LC3 was quantified and normalized against each condition's β-actin protein quantification.
In addition to Oil Red O staining, cells were analyzed via Western blots for restored LC3 expression for each drug, under the conditions that had optimal effects in the Oil Red O screen (FIG. 27). Since the Western antibody previously used successfully for rapamycin treatment LC3 blots had been discontinued by the manufacturer, we tested two alternative antibodies and chose the one from Cell Signaling Technologies because it gave the strongest signal-to-noise ratio under our experimental conditions.
Western blotting was performed on AML-12 cells incubated for 24 hours with the described drug conditions. LC3 was quantified and normalized against each condition's β-actin protein quantification.

[3] = test system: G6pc siRNA knockdown AML-12 cells; details: Oil Red O, duplicate
Text: In brief, a wide array of drugs was selected, including those that modulate autophagy via the […] pathway, those that do so through AMPK modulation to act through mTORC1, and those using yet-undetermined pathways. Analysis of additional literature led to the selection of three concentrations of each compound to be tested in cell culture using the G6pc siRNA knockdown AML-12 mouse hepatocyte cell line model of GSD Ia as an initial screen for the drugs.
Drug concentrations were chosen based on similarity to published concentrations in either cell culture models resulting in target effects or autophagy, or in vivo extracellular fluid concentrations following animal treatments. The latter case is noted with the fluid type. Concentrations used in our in vitro AML-12 cell culture treatments are listed as the low, medium, and high concentrations that were screened.
The first test using AML-12 cells was the Oil Red 0 stain to examine the presence of lipid vacuoles in cells given the treatments.
G6pc siRNA knockdown AML-12 cells were given three different doses of each drug treatment. After 72 hours of growth, the media was changed to ketogenic media and appropriate quantities of each drug were added. This was performed in duplicate. Oil Red 0 staining was then performed and bright field images acquired at 10× magnification.
Drug treatments at three doses each were performed on G6pc siRNA knockdown AML-12 cells. Following oil red 0 staining the whole plates were evaluated visually for reductions in lipid accumulation. Treatments were performed in duplicate. —/0/+/++/+++ indicates the degree of improvement, or lipid reduction, caused by the treatment, with + indicating positive benefits.

NC(=O)N1c2ccccc2C=Cc2ccccc21 [Carbamazepine]
Published Concentration, cerebrospinal fluid [1]: 0.7 to 1.5 µg/mL | Effect (autophagy): Activated autophagy, reduced hepatosteatosis | LC3 normalized against β-actin (Western blot) [2]: increase in LC3 autophagic marker | Lipid Reduction Scoring, High dose ([3]; high concentration of Table 6): 0 | Lipid Reduction Scoring, Low dose ([3]; low concentration of Table 6): +++ | Lipid Reduction Scoring, Medium dose ([3]; medium concentration of Table 6): +
